Results on 3 compounds are retold here after patent US20230151432A1, “KIF18A INHIBITORS FOR TREATMENT OF NEOPLASTIC DISEASES” (AMGEN INC., priority 2020, published 2023).

Read-outs that look alike come from different tables or passages of the source.

Test [1] relates to OVCAR-8 tumors. The test is described as follows: OVCAR-8 Tumor Xenograft Efficacy Study (IP). The format is in vivo, mouse. As to the method: Animals were dosed IP daily with vehicle alone, C9 (50 or 100 mg/kg), or C12 (25 or 50 mg/kg). […] Tumor volume and body weight assessment performed as described above. After the final dose on day 46, plasma pharmacokinetic analysis was performed as described above except blood was drawn by retro-orbital bleed method.

For test [2], the system named is MDA-MB-157 TNBC cells. The experiment in a line: Imaging-based Centrosome Count Assay (CCA). To be noted: Homo sapiens, 24 hours of treatment. The class given is cell-based. How it is done: To analyze the effects of a KIF18A inhibitor on the mitotic phenotype of cancer cells, an imaging-based Centrosome Count Assay (CCA) carried out using a KIF18A inhibitor was carried out. In preparation for plating, MDA-MB-157 TNBC cells were resuspended seven times through a 10 mL syringe with 18-G needle to create a single-cell suspension. Cells were seeded at a density of 30 000 cells per well using the BRAVO Automated Liquid Handling Platform (Agilent Technologies, Santa Clara, Calif.) into Corning 96-well Flat Clear Bottom Black Polystyrene plate (Corning, N.Y.) in 100 μL of complete media and grown for 24 hours. […] Imaging data was acquired on Cellomics ArrayScan VTI HCS Reader (SN03090745F, ThermoFisher Scientific) using the SpotDetector.V4 Assay protocol (Ver 6.6.0 (Build 8153) with a 20×objective, experiment #1 collected 100-fields per well; experiment #2 collected 67-fields per well). […] The percentage of mitotic objects with >2 pericentrin spots (proxy for centrosome number) was determined for each well. […] This represents the total valid p-Histone H3 positive mitotic object count based on the set fluorescence intensity threshold using alexa-647 (channel 3). • (3) % Selected Object pHH3. […]

For test [3], the system named is CAL-51 TNBC cells. The experiment in a line: Centrosome immunofluorescence imaging and cl-PARP Western blotting (Example 6). To be noted: 0.5 μM; 24 h imaging, 48 h Western; TP53 wild-type. The class given is cell-based, human. How it is done:
(§1) To analyze the effects of a KIF18A inhibitor on mitotic centrosome/chromosome features and apoptosis of cancer cells, centrosome features in CAL-51 and MDA-MB-157 TNBC cells were analyzed by an immunofluorescence imaging analysis. Cells were seeded into Cell Carrier Ultra 96-well Polystyrene plate (PerkinElmer) in 200 μL of complete media and grown. […] Cells were washed twice with 200 μL Wash Buffer (1×PBS/0.5% BSA, Rockland Immunochemicals). Cells are stained with 100 μL anti-CETN3 mouse antibody (1:2000, H00001070-M01, Abnova) and anti-pericentrin rabbit antibody (1:2000, ab4448-100, Abcam) in 200 μL of Wash Buffer and incubated overnight at 4° C. Cells were washed twice with 200 μL Wash Buffer. Cells were stained with 100 μL secondary antibodies [goat anti-mouse IgG-alexa-488 (1:1000, A1 1029, Invitrogen) and goat anti-rabbit IgG-alexa-647 (1:1000, A21244, Invitrogen) in Wash Buffer for 2 hours at room temperature protected for light. Cells were washed twice followed by addition of 100 μL Wash Buffer containing Hoechst 33342 DNA dye (2 μg/mL). Cells were imaged on a PerkinElmer Ultraview Vox dual spinning disc confocal microscope using a 60× oil immersion objective with laser excitation wavelengths of 405 nm (Hoechst), 488 nm (alexa-488), and 647 nm (alexa-647). Representative maximal projection images were collected for mitotic objects from each treatment well. […]
A general note: In western blotting, separated proteins are transferred to a membrane and probed.

Test [4] relates to MDA-MB-157 TNBC cells. Described as above. The format is cell-based, human. To be noted: 0.5 μM; 24 h imaging, 48 h Western; TP53 mutant, CCNE1 amplified. How it is done: as §1
Test [5] deals with five KIF18A inhibitor-sensitive cancer cell lines. The test is described as follows: 6-day cell growth assay with re-plating in drug-free media. The format is cell-based, human. How it is done:
To better understand the durability of response after KIF18A inhibitor treatment, all five KIF18A inhibitor-sensitive cancer cell lines were treated with DMSO or Compound C11 in a 6-day cell growth assay, where the surviving cells were washed, collected, counted, and re-plated in drug-free growth media and cultured for additional 7 to 9 days. MCF-7 cells treated with a CDK 4/6 inhibitor was included as a cytostatic comparator.

Regarding `CC(C)(C)NS(=O)(=O)c1cccc(NC(=O)c2ccc(S(=O)(=O)NC(C)(C)C)cc2N2CCC3(CC2)CC3)c1` [Compound C9, 4-(N-(tert-butyl)sulfamoyl)-N-(3-(N-(tert-butyl)sulfamoyl)phenyl)-2-(6-azaspiro[2.5]octan-6-yl)benzamide], the tumor regression in test [1] (50 mg/kg IP once daily for 18 consecutive days) was determined as 16%; in test [1] (100 mg/kg IP once daily for 18 consecutive days) it was 73%.

Take `Cc1cc(NC(=O)c2ccc(NS(=O)(=O)CCO)cc2N2CCC3(CC2)CC3)nc(N2CCC(F)(F)CC2)n1` [Compound C14, N-(2-(4,4-Difluoropiperidin-1-yl)-6-methylpyrimidin-4-yl)-4-((2-hydroxyethyl)sulfonamido)-2-(6-azaspiro[2.5]octan-6-yl)benzamide]: the concentration for a half-maximal effect (EC50) (in general, the concentration that produces a half-maximal response) in test [2] (read-out: EC50, increase in p-Histone H3 positive cells) was 79.4 nM; in test [2] (read-out: EC50, pericentrin spotting (>2 spots per mitotic object)), 52.2 nM.

With `CC(C)(CO)Nc1ccc(C(=O)Nc2cccc(S(=O)(=O)C3CCCC3)c2)c(N2CCC3(CC2)CC3)n1` [Compound C11, N-(3-(cyclopentylsulfonyl)phenyl)-6-((1-hydroxy-2-methylpropan-2-yl)amino)-2-(6-azaspiro[2.5]octan-6-yl)nicotinamide], the “mitotic cell centrosome features and apoptosis” value in test [3] is reported as “no changes in centrosome features or apoptosis”; in test [4] it was “selectively induced alterations in mitotic cell centrosome features”. Also, the “cell growth and colony formation” value in test [5] (6-day treatment) was “significant decrease in cell growth and colony formation”. In addition, in test [5] (re-plated in drug-free media, additional 7 to 9 days), the “cell growth potential after drug withdrawal relative to DMSO control” value was “marked reduction cell growth potential”.
